Results as given in the NIST ThermoML archive (doi:10.1016/j.jct.2010.11.007).

Test: xn = mol fraction of the nth substance listed
Conditions: Liquid; for speed of sound: Sing-around technique in a fixed-path interferometer; for mass density: Vibrating tube method

C=CC(C)(O)CCC=C(C)C (stereo unspecified) [3,7-dimethyl-1,6-octadien-3-ol] + CCCO
Conditions	mass density, 283.15 K [kg/m3]	mass density, 298.15 K [kg/m3]	mass density, 313.15 K [kg/m3]	mass density, 328.15 K [kg/m3]	speed of sound, 283.15 K [m/s]	speed of sound, 298.15 K [m/s]	speed of sound, 313.15 K [m/s]	speed of sound, 328.15 K [m/s]
101 kPa, x1 = 0.0533	–	–	–	–	–	–	1171.9	1121
101 kPa, x1 = 0.0551	819.82	807.92	795.75	783.12	1274.4	1222.4	–	–
101 kPa, x1 = 0.1051	826.23	814.32	802.06	789.69	1288.6	1236	1184.2	1132.6
101 kPa, x1 = 0.2014	836.56	824.59	812.16	799.39	1308.8	1255.7	1203.6	1151
101 kPa, x1 = 0.3032	–	832.73	–	807.41	–	–	–	–
101 kPa, x1 = 0.3049	845.01	–	820.4	–	1326.2	1272.1	1218	1165.3
101 kPa, x1 = 0.3869	850.24	838.05	825.47	–	–	1281.3	1227.7	–
101 kPa, x1 = 0.3946	–	–	–	–	1336.7	–	–	–
101 kPa, x1 = 0.3947	–	–	–	812.99	–	–	–	1174.8
101 kPa, x1 = 0.4923	855.58	843.28	830.75	–	–	–	–	–
101 kPa, x1 = 0.4925	–	–	–	817.72	–	–	–	–
101 kPa, x1 = 0.4951	–	–	–	–	1345.4	1290.3	1236.5	1183.1
101 kPa, x1 = 0.5905	859.44	–	834.56	–	–	–	–	–
101 kPa, x1 = 0.5917	–	847.16	–	821.54	1350.8	1295.7	1242.2	1189.7
101 kPa, x1 = 0.6818	–	–	–	824.42	–	–	–	–
101 kPa, x1 = 0.6847	–	–	–	–	1355.2	1301	1247.2	1193.6
101 kPa, x1 = 0.6895	862.58	–	837.72	–	–	–	–	–
101 kPa, x1 = 0.69	–	850.31	–	–	–	–	–	–
101 kPa, x1 = 0.7653	–	852.26	839.66	826.67	–	–	1250.9	1197
101 kPa, x1 = 0.7685	864.67	–	–	–	1359	1304.8	–	–
101 kPa, x1 = 0.8735	866.97	854.67	842.05	829.08	1364.2	1309.4	1255.2	1201.2
101 kPa, x1 = 0.9296	868.12	855.79	843.14	830.17	1366.3	1311.8	1258	1204.4
101 kPa, x1 = 1	869.39	857	844.29	831.31	1370.6	1315.1	1260.8	1207.6
20000 kPa, x1 = 0.0582	833.8	822.8	811.8	800.4	–	–	–	–
20000 kPa, x1 = 0.1037	839.4	828.4	817.4	806	–	–	–	–
20000 kPa, x1 = 0.1803	847.1	836.2	825.1	813.6	–	–	–	–
20000 kPa, x1 = 0.3087	857.5	846.3	834.9	823.4	–	–	–	–
20000 kPa, x1 = 0.4104	863.5	852.3	840.7	829.1	–	–	–	–
20000 kPa, x1 = 0.4994	867.6	856.4	844.9	833.2	–	–	–	–
20000 kPa, x1 = 0.5939	871.3	860	848.4	836.7	–	–	–	–
20000 kPa, x1 = 0.7117	875.1	863.7	852.2	840.5	–	–	–	–
20000 kPa, x1 = 0.7777	876.8	865.5	853.9	842.2	–	–	–	–
20000 kPa, x1 = 0.8566	878.5	867	855.5	843.8	–	–	–	–
20000 kPa, x1 = 0.9405	880.2	868.8	857.3	845.6	–	–	–	–
20000 kPa, x1 = 1	881.2	869.7	858.1	846.4	–	–	–	–
25000 kPa, x1 = 0.0582	837	826.1	815.4	804.3	–	–	–	–
25000 kPa, x1 = 0.1037	842.5	831.7	820.9	809.7	–	–	–	–
25000 kPa, x1 = 0.1803	850.1	839.3	828.4	817.1	–	–	–	–
25000 kPa, x1 = 0.3087	860.5	849.4	838.3	826.9	–	–	–	–
25000 kPa, x1 = 0.4104	866.4	855.4	844.1	832.7	–	–	–	–
25000 kPa, x1 = 0.4994	870.5	859.5	848.1	836.7	–	–	–	–
25000 kPa, x1 = 0.5939	874.2	863	851.7	840.2	–	–	–	–
25000 kPa, x1 = 0.7117	877.9	866.7	855.4	843.9	–	–	–	–
25000 kPa, x1 = 0.7777	879.6	868.5	857.1	845.6	–	–	–	–
25000 kPa, x1 = 0.8566	881.3	870	858.7	847.2	–	–	–	–
25000 kPa, x1 = 0.9405	883	871.8	860.4	848.9	–	–	–	–
25000 kPa, x1 = 1	884	872.7	861.3	849.8	–	–	–	–
30000 kPa, x1 = 0.0582	839.8	829.3	818.7	807.8	–	–	–	–
30000 kPa, x1 = 0.1037	845.3	834.9	824.3	813.3	–	–	–	–
30000 kPa, x1 = 0.1803	852.9	842.5	831.7	820.7	–	–	–	–
30000 kPa, x1 = 0.3087	863.2	852.5	841.5	830.4	–	–	–	–
30000 kPa, x1 = 0.4104	869.1	858.4	847.2	836	–	–	–	–
30000 kPa, x1 = 0.4994	873.2	862.4	851.2	840	–	–	–	–
30000 kPa, x1 = 0.5939	876.8	866	854.8	843.6	–	–	–	–
30000 kPa, x1 = 0.7117	880.6	869.7	858.5	847.2	–	–	–	–
30000 kPa, x1 = 0.7777	882.2	871.4	860.2	848.9	–	–	–	–
30000 kPa, x1 = 0.8566	883.9	872.9	861.7	850.4	–	–	–	–
30000 kPa, x1 = 0.9405	885.6	874.7	863.4	852.1	–	–	–	–
30000 kPa, x1 = 1	886.6	875.6	864.3	853	–	–	–	–
35000 kPa, x1 = 0.0582	842.8	832.4	822.1	811.3	–	–	–	–
35000 kPa, x1 = 0.1037	848.3	837.9	827.5	816.7	–	–	–	–
35000 kPa, x1 = 0.1803	855.7	845.4	834.8	823.9	–	–	–	–
35000 kPa, x1 = 0.3087	866	855.4	844.6	833.6	–	–	–	–
35000 kPa, x1 = 0.4104	871.9	861.2	850.4	839.3	–	–	–	–
35000 kPa, x1 = 0.4994	875.9	865.2	854.3	843.2	–	–	–	–
35000 kPa, x1 = 0.5939	879.4	868.7	857.8	846.7	–	–	–	–
35000 kPa, x1 = 0.7117	883.2	872.4	861.5	850.4	–	–	–	–
35000 kPa, x1 = 0.7777	884.9	874.1	863.2	852.1	–	–	–	–
35000 kPa, x1 = 0.8566	886.5	875.6	864.7	853.6	–	–	–	–
35000 kPa, x1 = 0.9405	888.2	877.3	866.4	855.2	–	–	–	–
35000 kPa, x1 = 1	889.2	878.3	867.3	856.2	–	–	–	–
40000 kPa, x1 = 0.0582	845.5	835.4	825.1	814.7	–	–	–	–
40000 kPa, x1 = 0.1037	851.1	840.9	830.7	820.1	–	–	–	–
40000 kPa, x1 = 0.1803	858.4	848.3	837.9	827.2	–	–	–	–
40000 kPa, x1 = 0.3087	868.6	858.3	847.7	836.9	–	–	–	–
40000 kPa, x1 = 0.4104	874.6	864	853.3	842.4	–	–	–	–
40000 kPa, x1 = 0.4994	878.5	867.9	857.3	846.4	–	–	–	–
40000 kPa, x1 = 0.5939	882.1	871.5	860.7	849.8	–	–	–	–
40000 kPa, x1 = 0.7117	885.9	875.1	864.4	853.5	–	–	–	–
40000 kPa, x1 = 0.7777	887.5	876.8	866.1	855.1	–	–	–	–
40000 kPa, x1 = 0.8566	889.1	878.3	867.6	856.6	–	–	–	–
40000 kPa, x1 = 0.9405	890.8	880	869.2	858.2	–	–	–	–
40000 kPa, x1 = 1	891.8	881	870.2	859.2	–	–	–	–
